From ChEMBL document CHEMBL4257485, “The critical role of novel benzophenone analogs on tumor growth inhibition targeting angiogenesis and apoptosis” (Medchemcomm, 2018)
Activity calls are given as the source filed them. The calls are words filed in the database; no cut-off is given here.

Legend:
A549 [1] = assay: Cytotoxicity against human A549 cells after 48 hrs by trypan blue exclusion assay; type: functional, cell-based; conditions: A549, 48 h
A549 [2] = assay: Cytotoxicity against human A549 cells after 48 hrs by MTT assay; type: functional, cell-based; conditions: A549, 48 h
A549 [3] = assay: Cytotoxicity against human A549 cells after 48 hrs by LDH release assay; type: functional, cell-based; conditions: A549, 48 h
HeLa [4] = assay: Cytotoxicity against human HeLa cells after 48 hrs by trypan blue exclusion assay; type: functional, cell-based
HeLa [5] = assay: Cytotoxicity against human HeLa cells after 48 hrs by LDH release assay; type: functional, cell-based
MCF7 [6] = assay: Cytotoxicity against human MCF7 cells after 48 hrs by trypan blue exclusion assay; type: functional, cell-based; conditions: MCF7, 48 h
MCF7 [7] = assay: Cytotoxicity against human MCF7 cells after 48 hrs by MTT assay; type: functional, cell-based; conditions: MCF7, 48 h
MCF7 [8] = assay: Cytotoxicity against human MCF7 cells after 48 hrs by LDH release assay; type: functional, cell-based; conditions: MCF7, 48 h
NIH3T3 [9] = assay: Cytotoxicity against mouse NIH/3T3 cells after 48 hrs by trypan blue exclusion assay; type: cell-based; conditions: NIH3T3, 48 h
NIH3T3 [10] = assay: Cytotoxicity against mouse NIH/3T3 cells after 48 hrs by MTT assay; type: cell-based; conditions: NIH3T3, 48 h
NIH3T3 [11] = assay: Cytotoxicity against mouse NIH/3T3 cells after 48 hrs by LDH release assay; type: cell-based; conditions: NIH3T3, 48 h
HeLa [12] = assay: Cytotoxicity against human HeLa cells after 48 hrs by MTT assay; type: functional, cell-based
A549 [13] = assay: Induction of apoptosis in human A549 cells assessed as formation of apoptotic bodies after 12 to 15 hrs by flow cytometric method; type: functional, cell-based
A549 [14] = assay: Induction of apoptosis in human A549 cells assessed as cell condensation after 12 to 15 hrs by flow cytometric method; type: functional, cell-based
A549 [15] = assay: Cell cycle arrest in human A549 cells assessed as accumulation at sub-G1 phase after 16 hrs by propidium iodide staining-based flow cytometric method (reference value: 0.69%); type: functional
A549 [16] = assay: Cell cycle arrest in human A549 cells assessed as accumulation at G0/G1 phase after 16 hrs by propidium iodide staining-based flow cytometric method (reference value: 70.8%); type: functional
A549 [17] = assay: Cell cycle arrest in human A549 cells assessed as accumulation at S phase after 16 hrs by propidium iodide staining-based flow cytometric method (reference value: 24.8%); type: functional
A549 [18] = assay: Cell cycle arrest in human A549 cells assessed as accumulation at G2/M phase after 16 hrs by propidium iodide staining-based flow cytometric method (reference value: 3.44%); type: functional
A549 [19] = assay: Induction of apoptosis in human A549 cells assessed as early apoptotic cells after 12 to 15 hrs by annexin-V-FITC/propidium iodide staining-based flow cytometric method (reference value: 1.65%); type: functional
A549 [20] = assay: Induction of apoptosis in human A549 cells assessed a late apoptotic cells after 12 to 15 hrs by annexin-V-FITC/propidium iodide staining-based flow cytometric method (reference value: 14.3%); type: functional
A549 [21] = assay: Induction of apoptosis in human A549 cells assessed a necrotic cells after 12 to 15 hrs by annexin-V-FITC/propidium iodide staining-based flow cytometric method (reference value: 10.2%); type: functional
A549 [22] = assay: Induction of apoptosis in human A549 cells assessed as live cells after 12 to 15 hrs by annexin-V-FITC/propidium iodide staining-based flow cytometric method (reference value: 73.8%); type: functional

SMILES: Cn1cnc(C(=O)NNC(=O)COc2c(F)cc(C(=O)c3ccc(Cl)cc3)cc2Cl)c1
- IC50 (A549 [1]): 47.3 µM
- IC50 (A549 [2]): 49.1 µM
- IC50 (A549 [3]): 45.8 µM
- IC50 (HeLa [4]): 51.6 µM
- IC50 (HeLa [5]): 54.5 µM
- IC50 (MCF7 [6]): 47.3 µM
- IC50 (MCF7 [7]): 43.1 µM
- IC50 (MCF7 [8]): 44.4 µM
- IC50 (NIH3T3 [9]): 90.9 µM
- IC50 (NIH3T3 [10]): 87.8 µM
- IC50 (NIH3T3 [11]): 89.3 µM

SMILES: O=C(COc1c(F)cc(C(=O)c2ccc(F)cc2)cc1Cl)NNC(=O)c1ccc(=O)oc1
- IC50 (A549 [1]): 56.7 µM
- IC50 (A549 [2]): 58.8 µM
- IC50 (A549 [3]): 60.2 µM
- IC50 (HeLa [4]): 59.2 µM
- IC50 (HeLa [12]): 59.9 µM
- IC50 (HeLa [5]): 60.1 µM
- IC50 (MCF7 [6]): 62.2 µM
- IC50 (MCF7 [7]): 63.2 µM
- IC50 (MCF7 [8]): 61.1 µM
- IC50 (NIH3T3 [9]): 85.4 µM
- IC50 (NIH3T3 [10]): 87.8 µM
- IC50 (NIH3T3 [11]): 89.8 µM

SMILES: Cc1ccc(C(=O)c2cc(F)c(OCC(=O)NNC(=O)c3ccc(=O)oc3)c(Cl)c2)cc1
- IC50 (A549 [1]): 19.6 µM
- IC50 (A549 [2]): 22.6 µM
- IC50 (A549 [3]): 21.4 µM
- IC50 (HeLa [4]): 26.2 µM
- IC50 (HeLa [12]): 20.9 µM
- IC50 (HeLa [5]): 26.9 µM
- IC50 (MCF7 [6]): 29.1 µM
- IC50 (MCF7 [7]): 23.6 µM
- IC50 (MCF7 [8]): 24.2 µM
- IC50 (NIH3T3 [9]): 30.8 µM
- IC50 (NIH3T3 [10]): 28.9 µM
- IC50 (NIH3T3 [11]): 32.1 µM

SMILES: CC[C@@]1(O)C(=O)OCc2c1cc1n(c2=O)Cc2cc3ccccc3nc2-1 [CAMPTOTHECIN]
- Activity (A549 [13]): Active
- Activity (A549 [14]): Active
- Activity (A549 [15]): 19%
- Activity (A549 [16]): 59.4%
- Activity (A549 [17]): 19.2%
- Activity (A549 [18]): 2.43%
- Activity (A549 [19]): 2.16%
- Activity (A549 [20]): 23.6%
- Activity (A549 [21]): 9.12%
- Activity (A549 [22]): 65.1%

SMILES: Cn1cnc(C(=O)NNC(=O)COc2ccc(C(=O)c3ccccc3)cc2)c1
- IC50 (A549 [1]): 29.6 µM
- IC50 (A549 [2]): 30.6 µM
- IC50 (A549 [3]): 31.6 µM
- IC50 (HeLa [4]): 33.2 µM
- IC50 (HeLa [12]): 32.9 µM
- IC50 (HeLa [5]): 31.9 µM
- IC50 (MCF7 [6]): 29.6 µM
- IC50 (MCF7 [7]): 30.6 µM
- IC50 (MCF7 [8]): 31.6 µM
- IC50 (NIH3T3 [9]): 98.8 µM
- IC50 (NIH3T3 [10]): 96.9 µM
- IC50 (NIH3T3 [11]): 97.4 µM
